Key:
[1] = target: T1, Neutrophil elastase (Homo sapiens) (UniProt P08246); experiment: Inhibition of human leukocyte elastase; design: unit not given here
T1 sequence (whole entry): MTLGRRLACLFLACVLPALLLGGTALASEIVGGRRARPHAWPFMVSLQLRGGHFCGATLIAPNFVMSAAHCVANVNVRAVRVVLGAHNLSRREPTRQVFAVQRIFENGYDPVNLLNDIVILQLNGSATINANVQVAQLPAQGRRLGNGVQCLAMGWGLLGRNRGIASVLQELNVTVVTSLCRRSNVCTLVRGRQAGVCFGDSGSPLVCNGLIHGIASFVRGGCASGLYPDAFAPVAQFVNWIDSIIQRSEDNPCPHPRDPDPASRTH

[2] = species on record: Homo sapiens; experiment: In vitro inhibition of Serine protease chymotrypsin; design: unit not given here
[3] = species on record: Homo sapiens; experiment: Ratio of kobs/[l] for human leukocyte elastase and kobs/[l] for chymotrypsin

| SMILES | k obs / 1 [1] | k obs / 1 [2] | Ratio [3] |
| --- | --- | --- | --- |
| CS(=O)(=O)ON1C(=O)c2ccc(NC(=O)c3cccc4ccccc34)cc2C1=O | 25000 | 3300 | 7.6 |
| CCS(=O)(=O)ON1C(=O)c2ccc(N)cc2C1=O | 60000 | 13000 | 4.6 |
| CS(=O)(=O)ON1C(=O)c2ccc(NC(=O)c3ccccc3)cc2C1=O | 25000 | 3600 | 6.9 |
| CS(=O)(=O)ON1C(=O)c2ccc(NC(=O)CCc3ccccc3)cc2C1=O | 9700 | 4800 | 2 |
| CS(=O)(=O)ON1C(=O)c2ccc(N)cc2C1=O | 110000 | 12000 | 9.2 |
| CS(=O)(=O)ON1C(=O)c2ccc(NC(=O)/C=C/c3ccccc3)cc2C1=O | 20000 | 1600 | 13 |
| Cc1ccc(S(=O)(=O)N[C@@H](Cc2ccccc2)C(=O)Nc2ccc3c(c2)C(=O)N(OS(C)(=O)=O)C3=O)cc1 | 160000 | 11000 | 15 |

Second part, the molecule after the results:

| k obs / 1 [1] | k obs / 1 [2] | Ratio [3] | SMILES |
| --- | --- | --- | --- |
| 56000 | 5300 | 11 | CCS(=O)(=O)ON1C(=O)c2ccc(NC(=O)C(=O)OC)cc2C1=O |
| 220000 | 14000 | 16 | CCS(=O)(=O)ON1C(=O)c2ccc(NC(=O)CCCC(=O)OC)cc2C1=O |
| 57000 | 6600 | 8.6 | COC(=O)CCCC(=O)Nc1ccc2c(c1)C(=O)N(OS(C)(=O)=O)C2=O |
| 30000 | 5400 | 5.6 | COC(=O)C(=O)Nc1ccc2c(c1)C(=O)N(OS(C)(=O)=O)C2=O |
| 25000 | 9600 | 2.6 | CCS(=O)(=O)ON1C(=O)c2ccc(NC(=O)CCC(=O)OC)cc2C1=O |

Source: ChEMBL document CHEMBL1133055, “6-Acylamino-2-[(alkylsulfonyl)oxy]-1H-isoindole-1,3-dione mechanism-based inhibitors of human leukocyte elastase” (Bioorg Med Chem Lett, 2000)
